Consider ten compounds from patent US20170073305A1, “FATTY ACID AMIDES, COMPOSITIONS AND METHODS OF USE” (Catabasis Pharmaceuticals, Inc., priority 2011, published 2017).

SMILES strings stand for the structures.

For orientation: IC50 means the concentration that gives 50% inhibition.

Experiment [1] has as its system NF-κB. Briefly: NF-κB luciferase reporter assay in RAW 264.7 macrophages. The format is cell-based. The following applies: Mus musculus, RAW264.7; RAW 264.7 3×NF-κB luciferase reporter cells, 2 hour pretreatment, 200 ng/ml LPS for 3 hours; read-out: NF-kB inhibitory activity IC50. How it is done: RAW 264.7 cells stably expressing a 3×NF-κB response element-drive luciferase reporter were seeded into 96 well plates in sera-free medium (Optimem) 18 hours prior to compound application. Compounds of the invention were prepared by first making 100 mM stock solutions in EtOH. Stock solutions were then diluted 1:100 in low LPS FBS (Gemini BenchMark 100-106), mixed vigorously and allowed to incubate at room temperature for 30 minutes. 1:2 serial dilutions were then made in FBS supplemented with 1% EtOH, mixed vigorously, and again allowed to incubate at room temperature for 30 minutes before adding to RAW 264.7 reporter cells (final concentrations: 10% FBS, 100 uM highest compound dilution, 0.1% EtOH) for a 2 hour pretreatment prior to stimulation with LPS. Cells were then stimulated with 200 ng/ml LPS or vehicle control for 3 hours in the presence of the compounds of the invention. A set of six vehicles was left unstimulated with LPS in order to measure the assay floor. AlamarBlue viability dye (Invitrogen) was added to cells simultaneously with the delivery of LPS (final AlamarBlue concentration of 10%). After the 3 h incubation period with LPS, cell viability was measured by reading fluorescence (excitation 550 nm, emission 595 nm) with a Perkin Elmer Victor V plate reader. Then cell media was aspirated from each well. Luciferase signal was then developed by addition of the Britelite Plus reagent (Perkin Elmer). Luciferase activity was measured with the Perkin Elmer Victor V plate reader. NF-κB activity was expressed as a percent of the vehicle control wells (stimulated with LPS). Compounds were tested at 6 dose point titrations in triplicate to determine IC50 values. Table 1 summarizes the IC50 values for a number of fatty acid amides in this NF-κB luciferase reporter assay.
For orientation: In a reporter assay the amount or activity of a reporter protein is the signal.

Experiment [2] relates to Cystinotic fibroblasts (cell line GM00008, Coriell Cell Repository). The experiment can be described thus: cystinotic fibroblast assay (cystine depletion, LC-MS/MS). The format is cell-based. The following applies: 50 μM, cells incubated 24 hours, cystine by LC-MS/MS, percentage of control (POC). The text has this: Nephropathic cystinosis is an orphan genetic lysosomal storage disorder characterized by a massive accumulation of crystalline cystine within cells. Affected individuals develop a proximal renal tubulopathy and progress, if untreated, to end-stage renal failure. Omran et al (Bioorg. Med. Chem. 2011, p, 3492) described a convenient in vitro system to quickly evaluate compounds that could deplete levels of cystine in cultured fibroblasts. Cystinotic fibroblasts (cell line GM00008, Coriell Cell Repository) were seeded in a 6-well plate and grown in DMEM/15% FBS until confluent. […] Protein quantification was accomplished by dissolving precipitated protein in 0.25 M NaOH and 1 M Tris (pH 7.5), and spectrophotometric measurement using the Bradford method. Compound I-9 was evaluated in this cystinotic fibroblast assay. The level of cystine in this cystinotic cell line was quantitated by LC-MS/MS. […] The level of cystine was expressed as the percentage of control (POC). […] The cystine level was determined as follows: To the 50 μL of supernatant, acetonitrile (400 μL) containing 200 ng/ml Internal standard (deuterated cystine) was added and mixture was vortexed for 1 min followed by centrifugation for 10 minutes. […] The concentration of Cystine was measured by LC-MS/MS. […]

For experiment [3], the system named is Hmox1. Briefly: Hmox1 target gene expression in LPS-stimulated RAW264.7 macrophages. The format is cell-based. The conditions noted are these: RAW264.7, 1.6-50 μM, 2 hours pre-incubation, 100 ng/ml LPS 3 hours, relative to vehicle only control, FIG. 2. As to the method:
RAW264.7 macrophages were seeded at a density of 100,000 cells/well in a 96-well plate in DMEM supplemented with 10% FBS and Penn/strep. 16 hours later, medium was aspirated and replaced with 90 uL/well of serum-free DMEM. Fatty acid amides were brought up in 100% EtOH to a concentration of 100 mM and then diluted 1:100 in 100% FBS for a 20× stock solution consisting of 1 mM compound and 1% EtOH. The fatty acid amide 20× stock solutions were diluted 1:2 in FBS supplemented with 1% EtOH for a 500 uM 10× stock solution. The 10× stock solutions were then serially diluted 1:2 in FBS supplemented with 1% EtOH and 10 μL of each dilution was added to the RAW246.7 cells to generate final concentrations of 50, 25, 12.5, 6.25, 3.12 and 1.6 μM. The compounds were allowed to pre-incubate for 2 hours before stimulation of 100 ng/ml LPS (10 μL of 1 μg/ml LPS is added to each well). Following 3 hours of LPS stimulation, cells were washed once in 1×PBS, aspirated dry, and flash frozen in liquid nitrogen. […] Transcript levels were then measured using ABI Taqman primer/probe assay kits, normalized to GAPDH using the deltaCt method, and the data expressed relative to vehicle only control. FIG. 2 summarizes the Hmox data on compound I-57 (cellular toxicity was assessed using alamar blue as indicator, abbreviated in the figure as AB). […]

In experiment [4] the test system is IL-1β. Briefly: IL-1β gene expression in LPS-stimulated RAW264.7 macrophages. Format: cell-based. The following applies: RAW264.7, 2 hours pre-incubation, 100 ng/ml LPS 3 hours, relative to vehicle only control, FIG. 1. As to the method:
RAW264.7 macrophages were seeded at a density of 100,000 cells/well in a 96-well plate in DMEM supplemented with 10% FBS and Penn/strep. 16 hours later, medium was aspirated and replaced with 90 μL/well of serum-free DMEM. Fatty acid amides were brought up in 100% EtOH to a concentration of 100 mM and then diluted 1:100 in 100% FBS for a stock solution consisting of 1 mM compound and 1% EtOH. These stock solutions were then diluted 1:10 in FBS supplemented with 1% EtOH to generate a 100 μM of the fatty acid amide. 10 μL was then added to the RAW246.7 cells to generate final concentrations 10 μM of the fatty acid amide or 10 μM each DHA and MMF, along with vehicle only control. The compounds were allowed to pre-incubate for 2 hours before stimulation of 100 ng/ml LPS (10 μL of 1 μg/ml LPS was added to each well). Following 3 hours of LPS stimulation, cells were washed once in 1×PBS, aspirated dry, and flash frozen in liquid nitrogen. […] IL-1β transcript levels were then measured using Taqman primer/probe assay sets (Applied Biosystems), normalized to GAPDH using the deltaCt method, and the data expressed relative to vehicle only control. FIG. 1 summarizes the IL-1β gene expression data on compound I-57 (cellular toxicity was assessed using alamar blue as indicator, abbreviated in the figure as AB). […]

In experiment [5] the test system is mice lacking cystinosin. The following applies: 200 or 400 mg/kg orally for 7, 30 or 60 days, greatest effect in liver and kidney after 60 days; cited from earlier work.

Consider `CC/C=C\C/C=C\C/C=C\C/C=C\C/C=C\C/C=C\CCC(=O)O` [DHA, all-cis-4,7,10,13,16,19-docosahexaenoic acid, reference compound], for which the IC50 in experiment [1] is above 200 µM.

As to `CC/C=C\C/C=C\C/C=C\C/C=C\C/C=C\CCCC(=O)O` [EPA, all-cis-5,8,11,14,17-eicosapentaenoic acid, reference compound], the IC50 in experiment [1] is above 200 µM.

`CC/C=C\C/C=C\C/C=C\C/C=C\C/C=C\CCCC(=O)NCCSSCCNC(C)=O` [I-9, (5Z,8Z,11Z,14Z,17Z)-N-(2-((2-acetamidoethyl)disulfanyl)ethyl)icosa-5,8,11,14,17-pentaenamide]: the “reduction in the cystine level” value in experiment [2] worked out at 68%.

In the case of `CC/C=C\C/C=C\C/C=C\C/C=C\C/C=C\C/C=C\CCC(=O)Nc1nc2c(s1)C[C@H](NCCC)CC2` [I-21, (4Z,7Z,10Z,13Z,16Z,19Z)-N-((R)-6-(propylamino)-4,5,6,7-tetrahydrobenzo[d]thiazol-2-yl)docosa-4,7,10,13,16,19-hexaenamide], in experiment [1], the IC50 is below 200 µM.

Take `CC/C=C\C/C=C\C/C=C\C/C=C\C/C=C\C/C=C\CCC(=O)N[C@@H](C)C(=O)N[C@@H]1[C@@H](O)[C@H](O)[C@@H](CO)O[C@H]1O` [I-47, (4Z,7Z,10Z,13Z,16Z,19Z)-N-((S)-1-oxo-1-(((2R,3R,4R,5S,6R)-2,4,5-trihydroxy-6-(hydroxymethyl)tetrahydro-2H-pyran-3-yl)amino)propan-2-yl)docosa-4,7,10,13,16,19-hexaenamide]: the IC50 in experiment [1] was above 200 µM.

With `CC/C=C\C/C=C\C/C=C\C/C=C\C/C=C\C/C=C\CCC(=O)N[C@H](C(=O)N[C@@H]1[C@@H](O)[C@H](O)[C@@H](CO)O[C@H]1O)C(C)C` [I-48, (4Z,7Z,10Z,13Z,16Z,19Z)-N-((S)-3-methyl-1-oxo-1-(((2R,3R,4R,5S,6R)-2,4,5-trihydroxy-6-(hydroxymethyl)tetrahydro-2H-pyran-3-yl)amino)butan-2-yl)docosa-4,7,10,13,16,19-hexaenamide], in experiment [1], the IC50 is below 50 µM.

Consider `CC/C=C\C/C=C\C/C=C\C/C=C\C/C=C\C/C=C\CCC(=O)N[C@@H](CC(C)C)C(=O)N[C@@H]1[C@@H](O)[C@H](O)[C@@H](CO)O[C@H]1O` [I-49, (4Z,7Z,10Z,13Z,16Z,19Z)-N-((S)-4-methyl-1-oxo-1-(((2R,3R,4R,5S,6R)-2,4,5-trihydroxy-6-(hydroxymethyl)tetrahydro-2H-pyran-3-yl)amino)pentan-2-yl)docosa-4,7,10,13,16,19-hexaenamide], for which the IC50 in experiment [1] is below 50 µM.

Turning to `CC/C=C\C/C=C\C/C=C\C/C=C\C/C=C\C/C=C\CCC(=O)NCCOCCOCCOC` [I-52, (4Z,7Z,10Z,13Z,16Z,19Z)-N-(2-(2-(2-methoxyethoxy)ethoxy)ethyl)docosa-4,7,10,13,16,19-hexaenamide], the IC50 in experiment [1] is below 50 µM.

In the case of `CC/C=C\C/C=C\C/C=C\C/C=C\C/C=C\CCCC(=O)NCCOCCOCCOC` [I-57, (5Z,8Z,11Z,14Z,17Z)-N-(2-(2-(2-methoxyethoxy)ethoxy)ethyl)icosa-5,8,11,14,17-pentaenamide], in experiment [1], the IC50 is below 50 µM. Moreover, in experiment [3], the Hmox gene expression result is “upregulation”. Besides, in experiment [4], the IL-1β gene expression entry is listed as “decrease”.

In the case of `NCCS` [cysteamine, reference compound], in experiment [2], the “reduction in the cystine level” value is reported as 45%. The “cystine levels of tissues” value in experiment [5] was “reduce cystine levels of all tissues tested”.
